According to patent US11685761B2, “Cyclic di-nucleotide compounds as sting agonists” (Merck Sharp & Dohme Corp., priority 2017, dated 2023):
Like-named read-outs stand apart in the source and are kept apart here.

How the values were obtained:
[1] = tested on: IFN-β secretion from THP1 cells; test: IFN-β secretion in THP1 cell culture (5 h); type: cell-based, human; conditions: for activation at 30 µM: Homo sapiens, THP1 cells, 5 h incubation, compound at 30 μM, 30 uM cGAMP = 100%, read-out: % Effect at 30 μM relative to 2′3′-cGAMP
Description: The ability of compounds to stimulate the secretion of interferon-beta from THP1 cells was measured using a human IFN-β AlphaLISA kit (Perkin Elmer, Cat. No. AL265F). The basic protocol is as follows:
The cell viability and count was ascertained using a Beckman Coulter V-Cell XR cell counter. The cell suspension was centrifuged at 200×g for 5 min at RT. Cells were resuspended to a density of 0.8×10^6/mL in 37° C. assay medium. Subsequent liquid transfers were performed using either a Matrix electronic multichannel pipette or an Agilent Bravo Automated Liquid Handling Platform.
The assay was started by dispensing 40 μL of the previously prepared cell suspension into the wells of the plate containing compounds. After 5 h incubation at 37° C., 5% CO2 in a humidified atmosphere, the plate of cells and compounds was centrifuged at 200×g for 5 min at RT. […] To these supernatant-containing wells was added 10 μL of 5× Anti-Analyte Acceptor beads (50 μg/mL of AlphaLISA HiBlock Buffer) and incubated for 30 min at RT while shaking on an orbital plate shaker. To each well was added 10 μL of 5× Biotinylated Antibody Anti-analyte (5 nM in AlphaLISA HiBlock Buffer) and incubated on an orbital plate shaker for 60 min at RT or overnight at 4° C. To each well was added 25 μL of 2× SA-Donor beads (80 μg/mL in AlphaLISA HiBlock Buffer) and incubated for 30-45 min at RT in the dark while shaking on an orbital plate shaker. The plate was then read on a Perkin Elmer Envision (λex680 nm, λem=570 nm). The percent effect of the AlphaLISA signal at each compound concentration was calculated based on 30 uM cGAMP positive controls and 0.3% DMSO negative controls. The plot of percent effect versus the log of compound concentration was fit with a 4-parameter concentration response equation to calculate EC50 values.
Compounds of the disclosure were evaluated for IFN-β secretion in THP1 cell culture as described above.

[2] = molecular target: T1, full-length HAQ STING (Homo sapiens, UniProt Q86WV6, G230A/H232R/R293Q/R71H); test: 3H-cGAMP filtration binding assay (HAQ STING); conditions: competition with tritiated cGAMP ligand; T. ni cell membranes overexpressing full-length HAQ STING
T1 construct: made in house; host or cells: Trichoplusia ni (Hi-Five) insect cells, baculovirus generated in Sf21; crude membranes
T1 sequence (Q86WV6 with tags, fused parts or gaps R71H/G230A/H232R/R293Q): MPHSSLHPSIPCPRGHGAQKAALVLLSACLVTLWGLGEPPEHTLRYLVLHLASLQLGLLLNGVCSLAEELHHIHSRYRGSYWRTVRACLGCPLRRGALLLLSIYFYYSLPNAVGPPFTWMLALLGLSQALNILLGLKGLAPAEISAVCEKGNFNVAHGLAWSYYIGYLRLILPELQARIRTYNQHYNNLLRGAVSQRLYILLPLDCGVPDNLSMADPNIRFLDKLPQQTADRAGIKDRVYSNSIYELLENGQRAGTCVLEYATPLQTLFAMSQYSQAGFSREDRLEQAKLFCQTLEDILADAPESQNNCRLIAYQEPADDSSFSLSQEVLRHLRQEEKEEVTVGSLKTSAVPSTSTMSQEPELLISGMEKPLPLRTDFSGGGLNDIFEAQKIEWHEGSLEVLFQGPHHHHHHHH
Text: The ability of compounds to bind STING is quantified by the ability to compete with tritiated cGAMP ligand for human STING receptor membrane using a radioactive filter-binding assay. The binding assay employs STING receptor obtained from Hi-Five cell membranes overexpressing full-length HAQ STING prepared in-house and tritiated cGAMP ligand also purified in-house.
The ability of compounds to bind STING is quantified by their ability to compete with tritiated cGAMP ligand for human STING receptor membrane using a radioactive filter-binding assay. The binding assay employs STING receptor obtained from Trichoplusia ni cell membranes (T. ni; Expression Systems, cat #94-002F, www.expressionsystems.com) overexpressing full-length HAQ STING and tritiated cGAMP ligand.
The basic HAQ STING filtration assay protocol is as follows:
The compounds were serially titrated by the Hamilton STARPlus CORE in a 96-well plate (Greiner, #651201) using a 1:3 ten-point dose response format. […] 148 uL of prepared membrane was then manually added to each well of a 96-well deep-well polypropylene plate (Fisher Scientific, #12-566-121). Following membrane addition, 2 uL of either titrated test compound, DMSO control (Sigma #276855), or cold cGAMP control was added to the appropriate wells using a BIOMEK FX. Compound and membrane then preincubated for 60 min at RT to allow compound binding to equilibrate. Following equilibration, 8 nM of [^3H] c-GAMP ligand was prepared by diluting into assay buffer, and 50 uL of this working stock was then manually added to each well of the assay plate. Plates were then incubated at RT for 60 min, and the contents of each assay plate were then filtered through a 96-well GF/B filter plate (PerkinElmer, #6005250) using a TOMTEC MACH III Cell Harvester equipped with 20 mM HEPES buffer (Fisher Scientific, #BP299500). The filter plates were then dried at 55° C. for 30 min using a pressurized oven before 30 uL of ULTIMA GOLD F scintillate was added to each well. Tritium levels for each reaction well were then measured using a PerkinElmer TopCount plate reader.
After normalization to controls, the percent activity for each compound concentration was calculated by measuring the amount of remaining radioactivity. The plot of percent activity versus the log of compound concentration was fit with a 4-parameter dose response equation to calculate EC50 values.

| Structure (SMILES) | activation at 30 µM ([1]; THP-1, 5 h) | EC50 [2] | activation at 30 µM ([1]; THP-1) | % Effect at 30 μM relative to 2′3′-cGAMP [1] |
| --- | --- | --- | --- | --- |
| Nc1ncnc2c1ncn2[C@@H]1S[C@@H]2COP(=O)(S)OC3[C@H](n4cnc5c(=O)n6cc[nH]c6nc54)O[C@H](COP(=O)(S)OC2C1O)[C@H]3F (stereo in doubt) [Example 17, 3-[(5R,7R,8R,12aR,14R,15S,15aR,16R)-14-(6-amino-9H-purin-9-yl)-16-fluoro-15-hydroxy-2,10-dioxido-2,10-disulfanyloctahydro-12H-5,8-methanothieno[3,2-l][1,3,6,9,11,2,10]pentaoxadiphosphacyclotetradecin-7-yl]-3,5-dihydro-9H-imidazo[1,2-a]purin-9-one] | 122% | 3 nM | – | – |
| Nc1ncnc2c1ncn2[C@@H]1O[C@@]23CO[C@@H]1[C@@H]2OP(=O)(S)OC[C@H]1O[C@@H](n2ccc(=O)n4ccnc24)[C@H](OP(=O)(S)OC3)[C@@H]1O (stereo partly drawn) [Example 6, 8-[(5R,7R,8R,12aR,14R,15R,15aS,18R)-14-(6-amino-9H-purin-9-yl)-18-hydroxy-2,10-dioxido-2,10-disulfanylhexahydro-14H-15,12a-(epoxymethano)-5,8-methanofuro[3,2-l] [1,3,6,9,11,2,10]pentaoxadiphosphacyclotetradecin-7(12H)-yl]imidazo[1,2-a]pyrimidin-5(8H)-one] | 145% | 28 nM | – | – |
| Nc1ncnn2c([C@H]3C[C@@H]4O[P@@](=O)(S)OC[C@H]5O[C@@H](n6ccc(=O)n7ccnc67)[C@H](O[P@](=O)(S)OC[C@H]4O3)[C@@H]5O)cnc12 [Example 7, 8-[(2S,5R,7R,8R,10R,12aR,14R,15aS,16R)-14-(4-aminoimidazo[2,1-f][1,2,4]triazin-7-yl)-16-hydroxy-2,10-dioxido-2,10-disulfanyl-octahydro-12H-5,8-methanofuro[3,2-l][1,3,6,9,11,2,10]pentaoxadiphosphacyclotetradecin-7-yl]imidazo [1,2-a]pyrimidin-5(8H)-one] | 140% | 2 nM | – | – |
| Nc1ccnc2c1nnn2[C@H]1C[C@@H]2OP(=O)(S)OC[C@H]3O[C@@H](n4ccc(=O)n5ccnc45)[C@H](OP(=O)(S)OC[C@H]2O1)[C@@H]3O (stereo partly drawn) [Example 18, 8-[(5R,7R,8R,12aR,14R,15aS,16R)-14-(7-amino-3H-[1,2,3]triazolo[4,5-b]pyridin-3-yl)-16-hydroxy-2,10-dioxido-2,10-disulfanyloctahydro-12H-5,8-methanofuro[3,2-l][1,3,6,9,11,2,10]pentaoxadiphosphacyclotetradecin-7-yl]imidazo[1,2-a]pyrimidin-5(8H)-one] | 124% | 126 nM | – | – |
| Nc1ncnc2c1nnn2[C@@H]1O[C@@H]2COP(=O)(S)O[C@@H]3C[C@@H](COP(=O)(S)O[C@H]2[C@@H]1F)O[C@H]3n1cnc2c(=O)n3cc[nH]c3nc21 (stereo partly drawn) [Example 28, 3-[(5S,7R,8R,12aR,14R,15S,15aR)-14-(7-amino-3H-[1,2,3]triazolo[4,5-d]pyrimidin-3-yl)-15-fluoro-2,10-dioxido-2,10-disulfanyloctahydro-12H-5,8-methanofuro[3,2-l] [1,3,6,9,11,2,10]pentaoxadiphosphacyclotetradecin-7-yl]-3,5-dihydro-9H-imidazo[1,2-a]purin-9-one] | 143% | 41 nM | – | – |
| O=c1ccn([C@@H]2O[C@@H]3COP(=O)(S)O[C@@H]4[C@H](O)[C@@H](COP(=O)(S)O[C@H]3[C@H]2O)O[C@H]4n2ccc(=O)n3ccnc23)c2nccn12 (stereo partly drawn) [Example 30, 8,8′-[(5R,7R,8R,12aR,14R,15R,15aS,16R)-15,16-dihydroxy-2,10-dioxido-2,10-disulfanyloctahydro-12H-5,8-methanofuro[3,2-l][1,3,6,9,11,2,10]pentaoxadiphosphacyclo-tetradecine-7,14-diyl]bisimidazo[1,2-a]pyrimidin-5(8H)-one] | – | 37 nM | 127% | – |
| Nc1nc2c(ncn2[C@@H]2O[C@@H]3COP(=O)(S)O[C@H]4[C@@H](O)[C@H](n5ccc(=O)n6ccnc56)O[C@@H]4COP(=O)(S)O[C@@H]2[C@@H]3F)c(=O)[nH]1 (stereo partly drawn) [Example 31, 2-amino-9-[(5R,7R,8S,12aR,14R,15R,15aS,16R)-16-fluoro-15-hydroxy-2,10-dioxido-14-(5-oxoimidazo [1,2-a]pyrimidin-8(5H)-yl)-2,10-disulfanyloctahydro-12H-5,8-methanofuro[3,2-l][1,3,6,9,11,2,10]pentaoxadiphosphacyclotetradecin-7-yl]-1,9-dihydro-6H-purin-6-one] | 28% | 16 nM | – | – |
| Nc1ccnc2c1ccn2[C@H]1C[C@@H]2OP(=O)(S)OC[C@H]3O[C@@H](n4ccc(=O)n5ccnc45)[C@H](OP(=O)(S)OC[C@H]2O1)[C@@H]3O (stereo partly drawn) [Example 34, 8-[(5R,7R,8R,12aR,14R,15aS,16R)-14-(4-amino-1H-pyrrolo[2,3-b]pyridin-1-yl)-16-hydroxy-2,10-dioxido-2,10-disulfanyloctahydro-12H-5,8-methanofuro[3,2-l][1,3,6,9,11,2,10]pentaoxadiphosphacyclotetradecin-7-yl]imidazo[1,2-a]pyrimidin-5(8H)-one] | 157% | 1120 nM | – | – |
| Nc1nc2c(ncn2[C@@H]2S[C@@H]3COP(=O)(S)O[C@H]4[C@H](F)[C@H](n5ccc6c(=O)[nH]cnc65)O[C@@H]4COP(=O)(S)O[C@@H]2C3)c(=O)[nH]1 (stereo partly drawn) [Example 44, 2-amino-9-[(5S,7R,8R,12aR,14R,15S,15aR)-15-fluoro-2,10-dioxido-14-(4-oxo-3,4-dihydro-7H-pyrrolo[2,3-d]pyrimidin-7-yl)-2,10-disulfanyl-octahydro-12H-5,8-methanofuro[3,2-l] [1,3,9,11,6,2,10]tetraoxathiadiphosphacyclotetradecin-7-yl]-1,9-dihydro-6H-purin-6-one] | 164% | 1 nM | – | – |
| Nc1cc2c(ncn2[C@@H]2O[C@@H]3COP(=O)(S)O[C@H]4[C@H](F)[C@H](n5ccc6c(=O)[nH]cnc65)O[C@@H]4COP(=O)(S)O[C@@H]2[C@@H]3F)c(=O)[nH]1 (stereo partly drawn) [Example 51, 6-amino-1-[(5R,7R,8S,12aR,14R,15S,15aR,16R)-15,16-difluoro-2,10-dioxido-14-(4-oxo-3,4-dihydro-7H-pyrrolo[2,3-d]pyrimidin-7-yl)-2,10-disulfanyl-octahydro-12H-5,8-methanofuro[3,2-l] [1,3,6,9,11,2,10]pentaoxadiphosphacyclotetradecin-7-yl]-1,5-dihydro-4H-imidazo[4,5-c]pyridin-4-one] | 113% | 13 nM | – | – |
| Nc1nc2c(ncn2[C@@H]2O[C@@H]3COP(=O)(O)O[C@H]4C[C@H](n5ccc6c(=O)[nH]cnc65)O[C@@H]4COP(=O)(S)O[C@@H]2C3)c(=O)[nH]1 (stereo partly drawn) [Example 54, 2-amino-9-[(5S,7R,8R,12aR,14R,15aS)-2-hydroxy-2,10-dioxido-14-(4-oxo-3,4-dihydro-7H-pyrrolo[2,3-d]pyrimidin-7-yl)-10-sulfanyloctahydro-12H-5,8-methanofuro[3,2-l][1,3,6,9,11,2,10]pentaoxadiphosphacyclotetradecin-7-yl]-1,9-dihydro-6H-purin-6-one] | – | 12 nM | – | 68% |
